Results: US11840528B2 (Hoffmann-La Roche Inc., priority 2018, dated 2023)

Assays:
h-GABA-A α5β3γ2 [1] = target: T1, h-GABA-A α5β3γ2 (Homo sapiens, UniProt P18507+P31644); test: [3H]flumazenil competition binding assay, membranes of HEK293 cells expressing GABAA receptors
Outline: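 Membranes from HEK293 cells transiently expressing human α5β3γ2 GABAA receptors, in Krebs-tris buffer pH 7.5, competed against [3H]flumazenil for 1 hour at 4° C to equilibrium. Bound radioactivity collected on GF/C filters and counted by liquid scintillation; Ki values are means of two determinations.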

h-GABA-A α5β3γ2 [2] = target: T1, h-GABA-A α5β3γ2; test: Two-electrode voltage clamp electrophysiology in Xenopus laevis oocytes expressing GABAA receptors, modulation of GABA EC20 current; format: cell-based; parameters: host or cells: Xenopus laevis oocytes micro-injected with RNA transcripts of the subunits
Outline: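 Human α5β3γ2 GABAA receptors were expressed in Xenopus oocytes by RNA injection, with γ2 RNA 5–10-fold higher, and recorded 3–5 days later by two-electrode voltage clamp at −80 mV at room temperature. The test compound, at about 30× its Ki, was co-applied during a second GABA EC20 pulse. Efficacy is the extremum of the point-by-point ratio to the first response, expressed as 100*(Fold increase−1).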

[3] = displacement of [3H]-Flumazenil 0.5 nM, HEK293 cells expressing human receptors, mean of two determinations, Table 1
[4] = % modulation of GABA EC20 = 100*(Fold increase-1), Table 1
[5] = test compound at approx. 30 fold its Ki, GABA at EC20, Table 1
[6] = reference compounds, % modulation of GABA EC20, Table 2

Compound | Ki (h-GABA-A α5β3γ2 [1]; [3]) [nM] | Efficacy (GABA) % (h-GABA-A α5β3γ2 [2]; [4]) [%] | Fold increase h-GABA-A α5β3γ2 oocyte (h-GABA-A α5β3γ2 [2]; [5]) | Ki (h-GABA-A α5β3γ2 [1]; reference compounds, Table 2) [nM] | Efficacy (GABA) % (h-GABA-A α5β3γ2 [2]; [6]) [%] | Fold increase h-GABA-A α5β3γ2 oocyte (h-GABA-A α5β3γ2 [2]; reference compounds, Table 2)
Cc1onc(-c2ccc(C(F)(F)F)nn2)c1Cn1ncc(N2CC3(CC[C@@H](F)CO3)C2)cc1=O [Example 334, (R)-5-(7-fluoro-5-oxa-2-azaspiro[3.5]nonan-2-yl)-2-((5-methyl-3-(6-(trifluoromethyl)pyridazin-3-yl)isoxazol-4-yl)methyl)pyridazin-3(2H)-one] | 5.9 | 105 | 2.05 |  |  | 
Cc1onc(-c2ccc(C(F)(F)F)nn2)c1Cn1ncc(N2CC3(CCCCO3)C2)cc1=O [Example 335, 2-((5-methyl-3-(6-(trifluoromethyl)pyridazin-3-yl)isoxazol-4-yl)methyl)-5-(5-oxa-2-azaspiro[3.5]nonan-2-yl)pyridazin-3(2H)-one] | 9.2 | 90 | 1.9 |  |  | 
Cc1onc(-c2ccccc2)c1COc1ccc(N2CCCC2)nn1 [RO-035, reference compound] |  |  |  | 10.5 | −35 | 0.65
Cc1onc(-c2ccccc2)c1COc1ccc(N2CCOCC2)nn1 [RO-036, reference compound] |  |  |  | 9.45 | −28 | 0.72
Cc1cc(C)n(-c2ccc(OCc3c(-c4ccccc4)noc3C)nn2)n1 [RO-039, reference compound] |  |  |  | 5.15 | −17 | 0.83
Cc1onc(-c2ccccc2)c1COc1ccc(C(=O)N2CCOCC2)nn1 [RO-096, reference compound] |  |  |  | 26 | −16 | 0.84
